Here are results for four compounds from US20230029194A1, “MACROCYLIC SULFONYL DERIVATIVES MCL-1 INHIBITORS” (Janssen Pharmaceutica NV, priority 2019, published 2023).

For assay [1], the target named is Myeloid Cell Leukemia 1 (Mcl-1) (Homo sapiens, UniProt Q07820). The assay can be described thus: Terbium labeled Mcl-1 HTRF binding assay utilizing the Cy5-labeled BIM BH3 peptide. As for the experimental part:
Terbium labeled Myeloid Cell Leukemia 1(Mcl-1) homogeneous time-resolved fluorescence (HTRF) binding assay utilizing the BIM BH3 peptide (H2N—(C/Cy5Mal) WIAQELRRIGDEFN-OH) as the binding partner for Mcl 1.
This assay evaluated inhibition of the BH3 domain: Mcl-1 interaction by measuring the displacement of Cy5-labeled BIM BH3 peptide (H2N—(C/Cy5Mal) WIAQELRRIGDEFN-OH) in the HTRF assay format.
The following assay and stock buffers were prepared for use in the assay: (a) Stock buffer: 10 mM Tris—HCl, pH=7.5+150 mM NaCl, filtered, sterilized, and stored at 4° C.; and (b) 1X assay buffer, where the following ingredients were added fresh to stock buffer: 2 mM dithiothreitol (DTT), 0.0025% Tween-20, 0.1 mg/mL bovine serum albumin (BSA). The 1X Tb—Mcl-1+Cy5 Bim peptide solution was prepared by diluting the protein stock solution using the 1X assay buffer (b) to 25 pM Tb—Mcl-1 and 8 nM Cy5 Bim peptide.
Using the Acoustic ECHO, 100 nL of 100x test compound(s) were dispensed into individual wells of a white 384-well Perkin Elmer Proxiplate, for a final compound concentration of 1x and final DMSO concentration of 1%. Inhibitor control and neutral control (NC, 100 nL of 100% DMSO) were stamped into columns 23 and 24 of assay plate, respectively. Into each well of the plate was then dispensed 10 μL of the 1X Tb—Mcl-1+Cy5 Bim peptide solution. The plate was centrifuged with a cover plate at 1000 rpm for 1 minute, then incubated for 60 minutes at room temperature with plates covered. The TR-FRET signal was read on an BMG PHERAStar FSX MicroPlate Reader at room temperature using the HTRF optic module (HTRF: excitation: 337 nm, light source: laser, emission A: 665 nm, emission B: 620 nm, integration start: 60 μs, integration time: 400 μs).
The BMG PHERAStar FSX MicroPlate Reader was used to measure fluorescence intensity at two emission wavelengths—665nm and 620 nm—and report relative fluorescence units (RFU) for both emissions, as well as a ratio of the emissions (665 nm/620 nm)*10,000. The RFU values were normalized to percent inhibition as follows:
% inhibition=(((NC−IC)−(compound−IC))/(NC−IC))*100
where IC (inhibitor control, low signal)=mean signal of 1X Tb—MCl-1+Cy5 Bim peptide+inhibitor control or 100% inhibition of Mcl-1; NC (neutral control, high signal)=mean signal 1X Tb—MCl-1+Cy5 Bim peptide with DMSO only or 0% inhibition An 11-point dose response curve was generated to determine IC50 values (using GenData) based on the following equation:
Y=Bottom+(Top−Bottom)/(1+10((logIC50−X)*HillSlope))
where Y=% inhibition in the presence of X inhibitor concentration; Top=100% inhibition derived from the IC (mean signal of Mcl-1+inhibitor control); Bottom=0% inhibition derived from the NC (mean signal of Mcl-1+DMSO); Hillslope=Hill coefficient; and IC50=concentration of compound with 50% inhibition in relation to top/neutral control (NC).
In this assay [L]=8 nM and Kd=10 nM

A further assay relates to MOLP8 cells. Briefly: MOLP8 CellEvent Caspase-3/7 Green live-cell IncuCyte apoptosis assay. Type of assay: cell-based, human. The settings on record: averaged, number of independent runs in brackets. As for the experimental part: (§1) MCL-1 is a regulator of apoptosis and is highly over-expressed in tumor cells that escape cell death. The assay evaluates the cellular potency of small-molecule compounds targeting regulators of the apoptosis pathway, primarily MCL-1, Bfl-1, Bcl-2, and other proteins of the Bcl-2 family. Protein-protein inhibitors disrupting the interaction of anti-apoptotic regulators with BH3-domain proteins initiate apoptosis.
Activation of the apoptotic pathway was measured using the CellEvent™ Caspase-3/7 Green ReadyProbes™ Reagent (Thermo Fisher C10423, C10723). This assay produces a green fluorescent stain in cells that enter the apoptosis pathway. CellEvent® Caspase-3/7 Green reagent is a four amino acid peptide (DEVD) conjugated to a nucleic acid-binding dye that is non-fluorescent when not bound to DNA. The CellEvent® Caspase-3/7 Green reagent is intrinsically non-fluorescent, as the DEVD peptide inhibits binding of the dye to DNA. Upon activation of caspase-3/7 in apoptotic cells, the DEVD peptide is cleaved and the free dye can bind DNA, generating a bright green fluorescence. The activation of Caspase-3 and Caspase-7 is downstream of inhibition of MCL-1 or other apoptosis inhibiting proteins in cell lines that are dependent on them.
The live-cell readout on the IncuCyte permits tracking over time of the Caspase activation. […] The IncuCyte readout also allows one to normalize for cell number, as the suspension cells are hard to distribute evenly.
Signals were measured every 2 h for a duration of 22 h. The ratio of the Caspase mask to the Confluence mask, per image, as raw data, was calculated and the kinetic trace for every well was exported to Genedata Screener for analysis.
In Genedata Screener values for 6 h, 12 h, and 22 h from the kinetic traces were extracted. The values were normalized against negative controls (untreated cells). A standard dose-response analysis was performed on the normalized data.
The following data was reported at each of the following three aforementioned time points: (a) The dose-response curve, (b) The qAC50 and qAC50 Mode, and (c) Max Activity.
Cells were maintained in culture medium containing 10% Heat Inactivated (HI) FBS, 2 mM L-Glutamine and 50 μg/mL Gentamycin phenol red free RPMI-1640. Cells were split at 0.4 million/mL twice a week.
On Day 1, plates containing individual wells with test compounds at 10 mM concentration, 150 nL per well. The final concentrations range from […] to 10 pM compound (and no compound control) and compounds were thawed at room temperature for 1 hour. 25 μl of prewarmed medium was added into each well by multidrop (column 1, 3-22, 24), followed by addition of DMSO control (0.6% DMSO) in column 2. The plate was sealed using Breathe-Easy®) sealing membrane and shaken for 30 min at room temperature to dissolve the test compound(s) in medium. The plate was then kept in the incubator for 1 hour at 37° C., 5% CO2.
MOLP8 cells in medium at 40000/25 μl (20000/50 μl final in assay) were prepared with CellEvent™ Caspase-3/7 Green Detection Reagent at 4 μM (2 μM final in assay). Once prepared, the cells were added to the test compound plate in an amount of 20000 and the plate was immediately placed in the IncuCyte and imaging started using following settings: 10X objective, 2 s exposure time in green channel, interval of 2 h, acquisition stopped after 22 h.
For analysis in IncuCyte, a Basic Analysis protocol was defined to calculate the “confluence” and “caspase” areas from the “Phase” and “green” images, respectively, as follows: (a) Confluence: Segmentation Adjustment 1, Hole Fill 0, Adjust Size −2, No filters (b) Caspase: Top-Hat segmentation, Radius 10, Threshold 0.3 GCU, Edge Split On with sensitivity 0, Hole Fill 0, Adjust Size 1, and filter on a minimum Area of 20 μm. The analyzer is trained on a sufficient number of positive and negative control wells, as well as compound treated wells, verifying that the “confluence” layer detects both live and dead (condensed) cells. […]

Assay [2] has as its system MOLP-8 human multiple myeloma cell line. Briefly: MOLP8 Caspase-Glo 3/7 luminescent assay. Type of assay: cell-based. The settings on record: MOLP8 cells, 2 hours incubation, 10% FBS assay media, 30 μM highest conc.; averaged over all runs on all batches.
Excerpt: as §1
The Caspase-Glo® 3/7 Assay is a luminescent assay that measures caspase-3 and -7 activities in purified enzyme preparations or cultures of adherent or suspension cells. The assay provides a proluminescent caspase-3/7 substrate, which contains the tetrapeptide sequence DEVD. This substrate is cleaved to release aminoluciferin, a substrate of luciferase used in the production of light. Addition of the single Caspase-Glo® 3/7 Reagent in an “add-mix-measure” format results in cell lysis, followed by caspase cleavage of the substrate and generation of a “glow-type” luminescent signal. This assay uses the MOLP-8 human multiple myeloma cell line, which is sensitive to MCL-1 inhibition.
Cell cultures were maintained between 0.2 and 2.0×10^6 cells/mL. The cells were harvested by collection in 50 mL conical tubes. The cells were then pelleted at 500 g for 5 mins before removing supernatant and resuspension in fresh pre-warmed culture medium. The cells were counted and diluted as needed.
The assay reagent was prepared by transferring the buffer solution to the substrate vial and mixing. The solution may be stored for up to 1 week at 4° C. with negligible loss of signal.
Compounds were delivered in assay-ready plates (Proxiplate) and stored at −20° C. Assays always include 1 reference compound plate containing reference compounds. The plates were spotted with 40 nL of compounds (0.5% DMSO final in cells; serial dilution; 30 μM highest conc. 1/3 dilution, 10 doses, duplicates). […] The plates were then sealed and measured after 30 minutes.
The activity of a test compound was calculated as percent change in apoptosis induction as follows: […]

Where [3] appears, read: Ki=IC50/(1+[L]/Kd), [L]=8 nM, Kd=10 nM, first table (before recalibration of the equipment).
Where [4] appears, read: values obtained after recalibration of the equipment, averaged over several runs.
[5] abbreviates: 6 h, read-out: MOLP8 Caspase 3/7 AC50 at 6 h.
Where [6] appears, read: 12 h, read-out: MOLP8 Caspase 3/7 AC50 at 12 h.
Setting [7] is: 22 h, read-out: MOLP8 Caspase 3/7 AC50 at 22 h.

Where two headings read alike, the source gives them in different places.

Chain of Myeloid Cell Leukemia 1 (Mcl-1) (Q07820 whole entry): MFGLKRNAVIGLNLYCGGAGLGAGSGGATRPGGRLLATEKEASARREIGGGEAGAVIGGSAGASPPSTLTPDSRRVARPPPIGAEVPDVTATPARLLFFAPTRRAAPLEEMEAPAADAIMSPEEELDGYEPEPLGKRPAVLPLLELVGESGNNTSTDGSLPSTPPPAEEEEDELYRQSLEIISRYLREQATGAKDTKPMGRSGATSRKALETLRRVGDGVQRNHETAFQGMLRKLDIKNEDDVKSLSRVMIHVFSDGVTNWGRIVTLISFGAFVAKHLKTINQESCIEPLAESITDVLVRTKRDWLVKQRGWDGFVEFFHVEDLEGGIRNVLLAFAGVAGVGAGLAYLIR

Take `Cc1c2c(nn1C)CN(C)Cc1cc(n(C)n1)CS(=O)(=O)c1cc(c3ccccc3c1)OCCCc1c(C(=O)O)n(C)c3c-2c(Cl)ccc13` (single isomer, unassigned) [Compound 1]: the Ki in assay [1] (setting [3]) worked out at 0.62 nM; in assay [1] (setting [4]), 0.56 nM. Further, the AC50 is 4470 nM in the assay on MOLP8 cells (setting [5]), 5580 nM in the assay with MOLP8 cells (setting [6]), 5750 nM in the assay on MOLP8 cells (setting [7]) and 3900 nM in assay [2].
Consider `Cc1c2c(nn1C)CN(C)Cc1cc(n(C)n1)CS(=O)(=O)c1cc(c3ccccc3c1)OCCCc1c(C(=O)O)n(C)c3c-2c(Cl)ccc13` (single isomer, unassigned) [Compound 2], for which the figures for the Ki in assay [1] (setting [3]) and in assay [1] (setting [4]) were 86.3 nM and 153 nM, respectively. Also, the AC50 in the assay with MOLP8 cells (setting [5]), in the assay with MOLP8 cells (setting [6]) and in the assay with MOLP8 cells (setting [7]) was more than 30200 nM throughout.
As to `Cc1c2c(nn1C)CS(=O)(=O)Cc1cc(n(C)n1)CSc1cc(c3ccccc3c1)OCCCc1c(C(=O)O)n(C)c3c-2c(Cl)ccc13` (single isomer, unassigned) [Compound 3], the affinity in assay [1] (setting [4]), expressed as Ki, was 0.04 nM. Besides, the AC50 came to 680 nM with MOLP8 cells (setting [5]), 620 nM in the assay with MOLP8 cells (setting [6]), 540 nM in the assay with MOLP8 cells (setting [7]) and 400 nM in assay [2].
For the compound `Cc1c2c(nn1C)CS(=O)(=O)Cc1cc(n(C)n1)CSc1cc(c3ccccc3c1)OCCCc1c(C(=O)O)n(C)c3c-2c(Cl)ccc13` (single isomer, unassigned) [Compound 4], the Ki amounted to 1.7 nM in assay [1] (setting [3]) and 3 nM in assay [1] (setting [4]). In addition, the AC50 with MOLP8 cells (setting [5]) was determined as 18600 nM; with MOLP8 cells (setting [6]) it was 20200 nM; in the assay with MOLP8 cells (setting [7]), 21600 nM; in assay [2], 14100 nM.
